Here are results for eight compounds from US20090299044A1 (priority 2006, published 2009).

Bridge positions count the residues as written; N and C are the ends. Square brackets hold non-standard residues; d marks the D form. Peptide text beside a SMILES is read from it. 1Nal = N[C@@H](Cc1cccc2ccccc12)C(=O)O

Assay [1] concerns the target T1, human Kv1.1 (HEK293) (Homo sapiens, UniProt Q09470).
T1 construct: expressed in transfected cells; host or cells: HEK293
Description: cell-based.

For assay [2], the target named is T2, human Kv1.3 (CHO) (Homo sapiens, UniProt P22001).
T2 construct: expressed in transfected cells; host or cells: CHO
The assay can be described thus: cell-based.

T2 sequence (P22001 whole entry): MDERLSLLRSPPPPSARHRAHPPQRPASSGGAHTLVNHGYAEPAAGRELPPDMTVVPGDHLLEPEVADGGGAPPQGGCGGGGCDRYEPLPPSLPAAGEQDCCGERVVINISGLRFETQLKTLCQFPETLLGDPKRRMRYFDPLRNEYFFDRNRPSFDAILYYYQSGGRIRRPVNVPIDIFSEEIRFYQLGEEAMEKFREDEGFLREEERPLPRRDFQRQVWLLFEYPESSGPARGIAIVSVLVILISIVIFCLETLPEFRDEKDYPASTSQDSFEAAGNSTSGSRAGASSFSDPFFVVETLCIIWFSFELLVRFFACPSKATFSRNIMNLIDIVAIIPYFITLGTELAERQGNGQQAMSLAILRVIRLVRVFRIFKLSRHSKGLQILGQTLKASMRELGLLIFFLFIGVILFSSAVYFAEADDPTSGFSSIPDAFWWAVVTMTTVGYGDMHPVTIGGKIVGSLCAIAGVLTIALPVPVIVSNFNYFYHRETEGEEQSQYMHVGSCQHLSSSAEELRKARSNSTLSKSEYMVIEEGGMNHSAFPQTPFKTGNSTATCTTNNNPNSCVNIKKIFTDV
T1 sequence (Q09470 whole entry): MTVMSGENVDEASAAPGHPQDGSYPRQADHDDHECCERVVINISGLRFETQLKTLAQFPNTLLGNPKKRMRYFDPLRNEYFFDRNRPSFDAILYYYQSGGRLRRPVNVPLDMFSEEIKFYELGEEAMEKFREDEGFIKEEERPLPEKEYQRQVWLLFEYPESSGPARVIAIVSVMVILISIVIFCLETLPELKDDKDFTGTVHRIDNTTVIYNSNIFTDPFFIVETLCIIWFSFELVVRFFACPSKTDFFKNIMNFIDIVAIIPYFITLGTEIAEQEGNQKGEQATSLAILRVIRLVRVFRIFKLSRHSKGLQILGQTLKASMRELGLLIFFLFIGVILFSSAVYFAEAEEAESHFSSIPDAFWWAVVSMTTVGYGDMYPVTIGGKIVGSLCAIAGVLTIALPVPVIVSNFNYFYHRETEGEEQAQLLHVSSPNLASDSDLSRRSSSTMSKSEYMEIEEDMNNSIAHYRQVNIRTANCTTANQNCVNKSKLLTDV

For `CC[C@H](C)[C@@H]1NC(=O)[C@H](CCCCN)NC(=O)[C@@H](NC(=O)[C@H](CCCCN)NC(=O)[C@@H](NC(=O)[C@H](CC(N)=O)NC(=O)[C@@H](NC(=O)[C@@H](NC(=O)[C@@H](NC(=O)CN)C(C)C)[C@@H](C)CC)[C@@H](C)CC)C(C)C)CSSC[C@@H]2NC(=O)[C@H](CCCCN)NC(=O)CNC(=O)[C@H](Cc3ccccc3)NC(=O)[C@H](CCCNC(=N)N)NC(=O)[C@H](CCSC)NC(=O)CNC(=O)[C@H](C)NC(=O)[C@H](CCCCN)NC(=O)[C@H](CCCCN)NC(=O)[C@@H]3CSSC[C@@H](C(=O)N[C@H](C(=O)N4CCC[C@H]4C(=O)N[C@@H](CCCNC(=N)N)C(=O)O)[C@@H](C)O)NC(=O)[C@H](Cc4c[nH]cn4)NC(=O)[C@H](CSSC[C@H](NC(=O)[C@H](CCC(N)=O)NC(=O)[C@H](CCCNC(=N)N)NC(=O)[C@H](CO)NC1=O)C(=O)N[C@@H](CC(C)C)C(=O)N[C@@H](CCC(=O)O)C(=O)N1CCC[C@H]1C(=O)N3)NC(=O)[C@H](CCCCN)NC(=O)CNC(=O)[C@H](CC(N)=O)NC(=O)[C@H](CCSC)NC2=O` [K38R] (H-GVIINVKCKISRQCLEPCKKAGMRFGKCMNGKCHCTPR-OH; disulfide 8-28, 14-33, 18-35), the IC50 in assay [1] was 1.84 pM; in assay [2], 15 pM.

Turning to `CC[C@H](C)[C@@H]1NC(=O)[C@H](CCCCN)NC(=O)[C@@H](NC(=O)[C@H](CCCCN)NC(=O)[C@@H](NC(=O)[C@H](CC(N)=O)NC(=O)[C@@H](NC(=O)[C@@H](NC(=O)[C@@H](NC(=O)CN)C(C)C)[C@@H](C)CC)[C@@H](C)CC)C(C)C)CSSC[C@@H]2NC(=O)[C@H](CCCCN)NC(=O)CNC(=O)[C@H](Cc3ccccc3)NC(=O)[C@H](CCCNC(=N)N)NC(=O)[C@H](CCSC)NC(=O)CNC(=O)[C@H](C)NC(=O)[C@H](CCCCN)NC(=O)[C@H](CCCCN)NC(=O)[C@@H]3CSSC[C@@H](C(=O)N[C@H](C(=O)N4CCC[C@H]4C(=O)N[C@@H](CCCCN)C(=O)O)[C@@H](C)O)NC(=O)[C@H](Cc4c[nH]cn4)NC(=O)[C@H](CSSC[C@H](NC(=O)[C@H](CCC(N)=O)NC(=O)[C@H](CCCNC(=N)N)NC(=O)[C@H](CO)NC1=O)C(=O)N[C@@H](C)C(=O)N[C@@H](CCC(=O)O)C(=O)N1CCC[C@H]1C(=O)N3)NC(=O)[C@H](CCCCN)NC(=O)CNC(=O)[C@H](CC(N)=O)NC(=O)[C@H](CCSC)NC2=O` [L15A] (H-GVIINVKCKISRQCAEPCKKAGMRFGKCMNGKCHCTPK-OH; disulfide 8-28, 14-33, 18-35), the IC50 in assay [1] amounted to 15 pM; in assay [2], 43.1 pM.

Turning to `CC[C@H](C)[C@@H]1NC(=O)[C@H](CCCCN)NC(=O)[C@@H](NC(=O)[C@H](CCCCN)NC(=O)[C@@H](NC(=O)[C@H](CC(N)=O)NC(=O)[C@@H](NC(=O)[C@@H](NC(=O)[C@@H](NC(=O)CN)C(C)C)[C@@H](C)CC)[C@@H](C)CC)C(C)C)CSSC[C@@H]2NC(=O)[C@H](CCCCN)NC(=O)CNC(=O)[C@H](Cc3ccccc3)NC(=O)[C@H](CCCNC(=N)N)NC(=O)[C@H](CCSC)NC(=O)CNC(=O)[C@H](C)NC(=O)[C@H](CCCCN)NC(=O)[C@H](CCCCN)NC(=O)[C@@H]3CSSC[C@@H](C(=O)N[C@H](C(=O)N4CCC[C@H]4C(=O)N[C@@H](CCCCN)C(=O)O)[C@@H](C)O)NC(=O)[C@H](Cc4c[nH]cn4)NC(=O)[C@H](CSSC[C@H](NC(=O)[C@H](CCC(N)=O)NC(=O)[C@H](CCCNC(=N)N)NC(=O)[C@H](CO)NC1=O)C(=O)N[C@@H](Cc1cccc4ccccc14)C(=O)N[C@@H](CCC(=O)O)C(=O)N1CCC[C@H]1C(=O)N3)NC(=O)[C@H](CCCCN)NC(=O)CNC(=O)[C@H](CC(N)=O)NC(=O)[C@H](CCSC)NC2=O` [L15Nal] (H-GVIINVKCKISRQC[1Nal]EPCKKAGMRFGKCMNGKCHCTPK-OH; disulfide 8-28, 14-33, 18-35), the IC50 in assay [1] was less than 1.52 pM; in assay [2] it was 17.8 pM.

Take `CC[C@H](C)[C@@H]1NC(=O)[C@H](CCCCN)NC(=O)[C@@H](NC(=O)[C@H](CCCCN)NC(=O)[C@@H](NC(=O)[C@H](CC(N)=O)NC(=O)[C@@H](NC(=O)[C@@H](NC(=O)[C@@H](NC(=O)CN)C(C)C)[C@@H](C)CC)[C@@H](C)CC)C(C)C)CSSC[C@@H]2NC(=O)[C@H](CCCCN)NC(=O)CNC(=O)[C@H](Cc3ccccc3)NC(=O)[C@H](CCCNC(=N)N)NC(=O)[C@H](CCSC)NC(=O)CNC(=O)[C@H](C)NC(=O)[C@H](CCCCN)NC(=O)[C@H](CCCCN)NC(=O)[C@@H]3CSSC[C@@H](C(=O)N[C@H](C(=O)N4CCC[C@H]4C(=O)N[C@@H](CCCCN)C(=O)O)[C@@H](C)O)NC(=O)[C@H](Cc4c[nH]cn4)NC(=O)[C@H](CSSC[C@H](NC(=O)[C@H](CCC(N)=O)NC(=O)[C@H](CCCNC(=N)N)NC(=O)[C@H](CO)NC1=O)C(=O)N[C@@H](CCCNC(=N)N)C(=O)N[C@@H](CCC(=O)O)C(=O)N1CCC[C@H]1C(=O)N3)NC(=O)[C@H](CCCCN)NC(=O)CNC(=O)[C@H](CC(N)=O)NC(=O)[C@H](CCSC)NC2=O` [L15R] (H-GVIINVKCKISRQCREPCKKAGMRFGKCMNGKCHCTPK-OH; disulfide 8-28, 14-33, 18-35): the IC50 in assay [1] worked out at 2.16 pM; in assay [2], 13.7 pM.

As for `CC[C@H](C)[C@@H]1NC(=O)[C@H](CCCCN)NC(=O)[C@@H](NC(=O)[C@H](CCCCN)NC(=O)[C@@H](NC(=O)[C@H](CC(N)=O)NC(=O)[C@@H](NC(=O)[C@@H](NC(=O)[C@@H](NC(=O)CN)C(C)C)[C@@H](C)CC)[C@@H](C)CC)C(C)C)CSSC[C@@H]2NC(=O)[C@H](CCCCN)NC(=O)CNC(=O)[C@H](Cc3ccccc3)NC(=O)[C@H](CCCNC(=N)N)NC(=O)[C@H](C)NC(=O)CNC(=O)[C@H](C)NC(=O)[C@H](CCCCN)NC(=O)[C@H](CCCCN)NC(=O)[C@@H]3CSSC[C@@H](C(=O)N[C@H](C(=O)N4CCC[C@H]4C(=O)N[C@@H](CCCCN)C(=O)O)[C@@H](C)O)NC(=O)[C@H](Cc4c[nH]cn4)NC(=O)[C@H](CSSC[C@H](NC(=O)[C@H](CCC(N)=O)NC(=O)[C@H](CCCNC(=N)N)NC(=O)[C@H](CO)NC1=O)C(=O)N[C@@H](CC(C)C)C(=O)N[C@@H](CCC(=O)O)C(=O)N1CCC[C@H]1C(=O)N3)NC(=O)[C@H](CCCCN)NC(=O)CNC(=O)[C@H](CC(N)=O)NC(=O)[C@H](CCSC)NC2=O` [M23A] (H-GVIINVKCKISRQCLEPCKKAGARFGKCMNGKCHCTPK-OH; disulfide 8-28, 14-33, 18-35), the IC50 in assay [1] worked out at 38.6 pM; in assay [2], 71.4 pM.

Turning to `CC[C@H](C)[C@@H]1NC(=O)[C@H](CCCCN)NC(=O)[C@@H](NC(=O)[C@H](CCCCN)NC(=O)[C@@H](NC(=O)[C@H](CC(N)=O)NC(=O)[C@@H](NC(=O)[C@@H](NC(=O)[C@@H](NC(=O)CN)C(C)C)[C@@H](C)CC)[C@@H](C)CC)C(C)C)CSSC[C@@H]2NC(=O)[C@H](CCCCN)NC(=O)CNC(=O)[C@H](Cc3ccccc3)NC(=O)[C@H](CCCNC(=N)N)NC(=O)[C@H](CCC(=O)O)NC(=O)CNC(=O)[C@H](C)NC(=O)[C@H](CCCCN)NC(=O)[C@H](CCCCN)NC(=O)[C@@H]3CSSC[C@@H](C(=O)N[C@H](C(=O)N4CCC[C@H]4C(=O)N[C@@H](CCCCN)C(=O)O)[C@@H](C)O)NC(=O)[C@H](Cc4c[nH]cn4)NC(=O)[C@H](CSSC[C@H](NC(=O)[C@H](CCC(N)=O)NC(=O)[C@H](CCCNC(=N)N)NC(=O)[C@H](CO)NC1=O)C(=O)N[C@@H](CC(C)C)C(=O)N[C@@H](CCC(=O)O)C(=O)N1CCC[C@H]1C(=O)N3)NC(=O)[C@H](CCCCN)NC(=O)CNC(=O)[C@H](CC(N)=O)NC(=O)[C@H](CCSC)NC2=O` [M23E] (H-GVIINVKCKISRQCLEPCKKAGERFGKCMNGKCHCTPK-OH; disulfide 8-28, 14-33, 18-35), the IC50 in assay [1] turned out to be 10.4 pM; in assay [2] it was 24.3 pM.

Consider `CC[C@H](C)[C@@H]1NC(=O)[C@H](CCCCN)NC(=O)[C@@H](NC(=O)[C@H](CCCCN)NC(=O)[C@@H](NC(=O)[C@H](CC(N)=O)NC(=O)[C@@H](NC(=O)[C@@H](NC(=O)[C@@H](NC(=O)CN)C(C)C)[C@@H](C)CC)[C@@H](C)CC)C(C)C)CSSC[C@@H]2NC(=O)[C@H](CCCCN)NC(=O)CNC(=O)[C@H](Cc3ccccc3)NC(=O)[C@H](CCCNC(=N)N)NC(=O)[C@H](CCCNC(=N)N)NC(=O)CNC(=O)[C@H](C)NC(=O)[C@H](CCCCN)NC(=O)[C@H](CCCCN)NC(=O)[C@@H]3CSSC[C@@H](C(=O)N[C@H](C(=O)N4CCC[C@H]4C(=O)N[C@@H](CCCCN)C(=O)O)[C@@H](C)O)NC(=O)[C@H](Cc4c[nH]cn4)NC(=O)[C@H](CSSC[C@H](NC(=O)[C@H](CCC(N)=O)NC(=O)[C@H](CCCNC(=N)N)NC(=O)[C@H](CO)NC1=O)C(=O)N[C@@H](CC(C)C)C(=O)N[C@@H](CCC(=O)O)C(=O)N1CCC[C@H]1C(=O)N3)NC(=O)[C@H](CCCCN)NC(=O)CNC(=O)[C@H](CC(N)=O)NC(=O)[C@H](CCSC)NC2=O` [M23R] (H-GVIINVKCKISRQCLEPCKKAGRRFGKCMNGKCHCTPK-OH; disulfide 8-28, 14-33, 18-35), for which the IC50 is 2.01 pM in assay [1] and 12.3 pM in assay [2].

As to `CC[C@H](C)[C@@H]1NC(=O)[C@H](CCCCN)NC(=O)[C@@H](NC(=O)[C@H](CCCCN)NC(=O)[C@@H](NC(=O)[C@H](CC(N)=O)NC(=O)[C@@H](NC(=O)[C@@H](NC(=O)[C@@H](NC(=O)CN)C(C)C)[C@@H](C)CC)[C@@H](C)CC)C(C)C)CSSC[C@@H]2NC(=O)[C@H](CCCCN)NC(=O)CNC(=O)[C@H](Cc3ccccc3)NC(=O)[C@H](CCCNC(=N)N)NC(=O)[C@H](CCSC)NC(=O)CNC(=O)[C@H](C)NC(=O)[C@H](CCCCN)NC(=O)[C@H](CCCCN)NC(=O)[C@@H]3CSSC[C@@H](C(=O)N[C@H](C(=O)N4CCC[C@H]4C(=O)N[C@@H](CCCCN)C(=O)O)[C@@H](C)O)NC(=O)[C@H](Cc4c[nH]cn4)NC(=O)[C@H](CSSC[C@H](NC(=O)[C@H](CCC(N)=O)NC(=O)[C@H](CCCNC(=N)N)NC(=O)[C@H](CO)NC1=O)C(=O)N[C@@H](CC(C)C)C(=O)N[C@@H](CCC(=O)O)C(=O)N1CCC[C@H]1C(=O)N3)NC(=O)[C@H](CCCCN)NC(=O)CNC(=O)[C@H](CC(N)=O)NC(=O)[C@H](CCC(=O)O)NC2=O` [M29E] (H-GVIINVKCKISRQCLEPCKKAGMRFGKCENGKCHCTPK-OH; disulfide 8-28, 14-33, 18-35), the IC50 in assay [1] and in assay [2] was more than 3330 pM throughout.
